In ChEMBL document CHEMBL4825667, “α-Glucosidase Inhibitors from Ageratina grandifolia” (J Nat Prod, 2021):
The source made the active and inactive calls. The rule behind the calls is not given here.

How the values were obtained:
[1] = Inhibition of yeast Alpha-glucosidase using p-nitro phenyl-alpha-D-glucopyranoside as a substrate measured after 20 mins by spectrophotocolorimetric analysis; design: species or system Saccharomyces cerevisiae
[2] = system: Saccharomyces cerevisiae; assay: Mixed type inhibition of yeast Alpha- glucosidase assessed as decrease in Vmax using varying levels of p-NPG as substrate measured after 20 mins by reciprocal Lineweaver-Burk plot analysis
[3] = system: Saccharomyces cerevisiae; assay: Mixed type inhibition of yeast Alpha- glucosidase assessed as increase in Km using varying levels of p-NPG as substrate measured after 20 mins by reciprocal Lineweaver-Burk plot analysis
[4] = species: Homo sapiens; assay: Inhibition of Type-2 alpha glucosidase (unknown origin)
[5] = species: Homo sapiens; assay: Inhibition of Type-1 alpha glucosidase (unknown origin)

| SMILES | IC50 [1] | also measured |
| --- | --- | --- |
| O=C(/C=C/c1ccc(O)c(O)c1)OC[C@H]1O[C@@H](Oc2cc3oc(-c4ccc(O)cc4)c(O)c(=O)c3c(O)c2O)[C@H](O)[C@@H](O)[C@@H]1O | 6.94 µM | – |
| COc1cc2c(cc1C(C)OC)C=CC(C)(C)O2 (stereo not drawn) | 404 µM | – |
| CC(=O)c1ccc2c(c1)C=CC(C)(C)O2 | 460 µM | – |
| O=c1c(O)c(-c2ccc(O)c(O)c2)oc2cc(O[C@@H]3O[C@H](CO)[C@@H](O)[C@H](O)[C@H]3O)c(O)c(O)c12 | 402 µM | – |
| C[C@H]1O[C@H](O[C@H]2[C@H](O)[C@@H](O)[C@@H](O[C@H]3[C@H](O)[C@@H](O)C(O)O[C@@H]3CO)O[C@@H]2CO)[C@H](O)[C@@H](O)[C@@H]1N[C@H]1C=C(CO)[C@@H](O)[C@H](O)[C@H]1O (stereo partly drawn) [ACARBOSE] | 279 µM | inhibition [4]: Active; inhibition [5]: Active |

Continued, in another order:

| IC50 [1] | SMILES | also measured |
| --- | --- | --- |
| 440 µM | COc1cc2c(cc1C(C)=O)C=CC(C)(C)O2 [ENCECALIN] | – |
| 288 µM | C/C=C(/C)C(=O)O[C@@H](c1cc(C(C)=O)ccc1O)[C@H]1OC1(C)C | – |
| 672 µM | COc1cc2c(cc1C(C)O)C=CC(C)(C)O2 (stereo not drawn) | – |
| 0.79 µM | O=C(/C=C/c1ccc(O)c(O)c1)OC[C@H]1O[C@@H](Oc2cc3oc(-c4ccc(O)c(O)c4)c(O)c(=O)c3c(O)c2O)[C@H](O)[C@@H](O)[C@@H]1O | Vmax [2]: 1.42 mM/min; Km [3]: 610 µM |
